Experimental data taken from patent publication US11274090B2, “P300/CBP HAT inhibitors” (Constellation Pharmaceuticals, Inc., priority 2018, dated 2022).
pIC50: −log10 of the molar value.

Biological target: p300 HAT domain (residues 1287-1666) (Homo sapiens (Human), UniProt Q09472)
Assay: p300 HAT SPA assay (scintillation proximity assay, acetylation of biotinylated H3(1-21) peptide)
Assay type: biochemical
Settings: average of at least 2 replicate titrations
Description: In a typical experiment the p300 HAT inhibitory activity of the compounds described herein was determined in accordance with the following experimental method.
The expressed protein was purified by Ni2+ affinity, followed by anion exchange chromatography. Appropriate fractions were pooled and buffer exchanged into 20 mM Hepes pH 7.5, 150 mM NaCl, and 1 mM TCEP.
35 μL of the reaction volume was transferred to a 384-well streptavidin FlashPlate (PerkinElmer) using a Bravo liquid handler (Velocity 11) and incubated for 1.5 hr at RT. […] Data were analyzed in Genedata to determine inhibitor IC50 values.

Sequence of p300 HAT domain (residues 1287-1666) (Q09472 1287-1666): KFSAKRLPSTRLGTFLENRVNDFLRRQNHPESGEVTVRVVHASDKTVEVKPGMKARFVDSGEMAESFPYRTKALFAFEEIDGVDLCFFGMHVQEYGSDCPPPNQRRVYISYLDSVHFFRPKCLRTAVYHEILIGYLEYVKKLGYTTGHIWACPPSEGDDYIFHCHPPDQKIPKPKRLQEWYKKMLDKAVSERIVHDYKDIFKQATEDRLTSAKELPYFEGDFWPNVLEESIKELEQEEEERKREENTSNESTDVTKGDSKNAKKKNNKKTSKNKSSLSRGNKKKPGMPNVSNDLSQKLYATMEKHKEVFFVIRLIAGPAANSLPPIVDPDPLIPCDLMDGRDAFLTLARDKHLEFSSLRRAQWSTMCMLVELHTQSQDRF

SMILES | pIC50
Cc1cc(C#N)ccc1CCNC(C(=O)Nc1ccc(-c2cnn(C)c2)cn1)c1ccccc1 (single isomer, unassigned) [41 Isomer 2] | 5.75
N#Cc1ccc(CCNC(C(=O)Nc2ccc(C3CC3)cn2)c2ccccc2)cc1 (single isomer, unassigned) [42 Isomer 2] | 5.52
Cn1cc(-c2cnc(NC(=O)C(NCCc3ccc(C#N)cc3)c3ccccc3)c(Cl)c2)cn1 (single isomer, unassigned) [43 Isomer 2] | < 5.30
N#Cc1ccc(CCNC(C(=O)Nc2ccc(C3CCC3)cn2)c2ccccc2)cc1 (single isomer, unassigned) [46 Isomer 1] | < 5.30
CC(CNC(C(=O)Nc1ccc(-c2cnn(C(C)(C)C#N)c2)cn1)c1ccccc1)c1ccc(C#N)cc1 (single isomer, unassigned) [47 Isomer 3] | < 5.70
CN1CCN(c2ccc(NC(=O)C(NCCc3ccc(C#N)cc3)c3ccccc3)nc2)CC1 (single isomer, unassigned) [49 Isomer 2] | < 5.30
N#Cc1ccc(CCNC(C(=O)Nc2ccn(-c3ccccc3)n2)c2ccccc2)cc1 (single isomer, unassigned) [50 Isomer 2] | < 5.30
CC(CNC(C(=O)Nc1ccc(-c2cnn(C3CCC3)c2)cn1)c1ccccc1)c1ccc(C#N)cc1 (single isomer, unassigned) [52 Isomer 1] | 6.21
CC(CNC(C(=O)Nc1ccc(-c2cnn(C3CCC3)c2)cn1)c1ccccc1)c1ccc(C#N)cc1 (single isomer, unassigned) [52 Isomer 2] | < 5.70
CC(CNC(C(=O)Nc1ccc(-c2cnn(C3CCC3)c2)cn1)c1ccccc1)c1ccc(C#N)cc1 (single isomer, unassigned) [52 Isomer 4] | < 5.70
CC(CNC(C(=O)Nc1ccc(-c2cnn(C(C)(C)C)c2)cn1)c1ccccc1)c1ccc(C#N)cc1 (single isomer, unassigned) [54 Isomer 3] | < 5.70
CC(CNC(C(=O)Nc1ccc(-c2cnn(C(C)(C)C)c2)cn1)c1ccccc1)c1ccc(C#N)cc1 (single isomer, unassigned) [54 Isomer 4] | 5.71
Cn1cc(-c2ccc(NC(=O)C(NCCc3ccc(Cl)cc3)c3ccccc3)nc2)cn1 (single isomer, unassigned) [55 Isomer 2] | < 5.30
Cn1cc(-c2cnc(NC(=O)C(NCCc3ccc(C#N)cc3)c3ccccc3)cn2)cn1 (single isomer, unassigned) [56 Isomer 2] | < 5.30
Cn1cc(-c2ccc(NC(=O)C(NCCc3ccc(C#N)cc3)c3ccccc3)nn2)cn1 (single isomer, unassigned) [57 Isomer 1] | 6.09
Cn1cc(-c2ccc(NC(=O)C(NCCc3ccc(C#N)cc3)c3ccccc3)nn2)cn1 (single isomer, unassigned) [57 Isomer 2] | < 5.30
Cn1cc(-c2ccc(NC(=O)C(NCCc3ccc(F)cc3)c3ccccc3)nc2)cn1 (single isomer, unassigned) [58 Isomer 2] | < 5.30

SMILES | pIC50
CC(CNC(C(=O)Nc1ccc(-n2cnc(C(C)(C)C)c2)cn1)c1ccccc1)c1ccc(C#N)cc1 (single isomer, unassigned) [59 Isomer 1] | 5.82
CC(CNC(C(=O)Nc1ccc(-n2cnc(C(C)(C)C)c2)cn1)c1ccccc1)c1ccc(C#N)cc1 (single isomer, unassigned) [59 Isomer 2] | < 5.70
CC(CNC(C(=O)Nc1ccc(-n2cnc(C(C)(C)C)c2)cn1)c1ccccc1)c1ccc(C#N)cc1 (single isomer, unassigned) [59 Isomer 3] | < 5.70
Cc1nnc2n1CCN(c1ccc(NC(=O)C(NCCc3ccc(C#N)cc3)c3ccccc3)nc1)C2 (single isomer, unassigned) [60 Isomer 2] | < 5.70
COc1ccc(C(NCCc2ccc(C#N)cc2)C(=O)Nc2ccc(-c3cnn(C)c3)cn2)cc1 (single isomer, unassigned) [63 Isomer 2] | < 5.70
CCN(CC)C(=O)C1CCN(c2ccc(NC(=O)C(NCCc3ccc(C#N)cc3)c3ccccc3)nc2)CC1 (single isomer, unassigned) [64 Isomer 1] | < 5.70
CCN(CC)C(=O)C1CCN(c2ccc(NC(=O)C(NCCc3ccc(C#N)cc3)c3ccccc3)nc2)CC1 (single isomer, unassigned) [64 Isomer 2] | 6.25
CC1(C)CCN(c2ccc(NC(=O)C(NCCc3ccc(C#N)cc3)c3ccccc3)nc2)CC1 (single isomer, unassigned) [65 Isomer 2] | < 5.30
COC1CCN(c2ccc(NC(=O)C(NCCc3ccc(C#N)cc3)c3ccccc3)nc2)CC1 (single isomer, unassigned) [66 Isomer 2] | < 5.30
Cn1cc(-c2ccc(NC(=O)C(NCCc3ccc(C#N)cc3)c3ccc(Cl)cc3)nc2)cn1 (single isomer, unassigned) [67 Isomer 1] | < 5.70
CS(=O)(=O)N1CCN(c2ccc(NC(=O)C(NCCc3ccc(C#N)cc3)c3ccccc3)nc2)CC1 (single isomer, unassigned) [68 Isomer 1] | < 5.70
CN1CCN(c2ccc(NC(=O)C(NCCc3ccc(Cl)cc3)c3ccccc3)nc2)CC1 (single isomer, unassigned) [69 Isomer 2] | < 5.70
COc1cccc(C(NCCc2ccc(C#N)cc2)C(=O)Nc2ccc(-c3cnn(C)c3)cn2)c1 (single isomer, unassigned) [70 Isomer 1] | < 5.70
CN1CCN(c2ccc(NC(=O)C(NCCc3ccc(C#N)cc3)c3ccccc3)nc2)CCC1=O (single isomer, unassigned) [71 Isomer 2] | < 5.70
Cc1ncn(-c2ccc(NC(=O)C(NCCc3ccc(C#N)cc3)c3ccccc3)nc2)n1 (single isomer, unassigned) [73 Isomer 1] | < 5.70
CCN1CCN(c2ccc(NC(=O)C(NCCc3ccc(C#N)cc3)c3ccccc3)nc2)C1=O (single isomer, unassigned) [76 Isomer 2] | < 5.70

Now those with a higher pIC50, led by results:

pIC50 | SMILES
6.31 | N#Cc1ccc(CCNC(C(=O)Nc2ccc(C3CCC3)cn2)c2ccccc2)cc1 (single isomer, unassigned) [46 Isomer 2]
6.32 | CC1(C)CCN(c2ccc(NC(=O)C(NCCc3ccc(C#N)cc3)c3ccccc3)nc2)CC1 (single isomer, unassigned) [65 Isomer 1]
6.35 | CC(CNC(C(=O)Nc1ccc(-c2cnn(C(C)(C)C#N)c2)cn1)c1ccccc1)c1ccc(C#N)cc1 (single isomer, unassigned) [47 Isomer 1]
6.37 | CC(CNC(C(=O)Nc1ccc(-c2cnn(C(C)(C)C#N)c2)cn1)c1ccccc1)c1ccc(C#N)cc1 (single isomer, unassigned) [47 Isomer 4]
6.42 | CC(CNC(C(=O)Nc1ccc(-c2cnn(C(C)(C)C)c2)cn1)c1ccccc1)c1ccc(C#N)cc1 (single isomer, unassigned) [54 Isomer 1]
6.55 | N#Cc1ccc(CCNC(C(=O)Nc2ccn(-c3ccccc3)n2)c2ccccc2)cc1 (single isomer, unassigned) [50 Isomer 1]
6.61 | COc1cccc(C(NCCc2ccc(C#N)cc2)C(=O)Nc2ccc(-c3cnn(C)c3)cn2)c1 (single isomer, unassigned) [70 Isomer 2]
6.63 | Cn1cc(-c2ccc(NC(=O)C(NCCc3ccc(C#N)cc3Cl)c3ccccc3)nc2)cn1 (single isomer, unassigned) [51 Isomer 2]
6.67 | Cn1cc(-c2ccc(NC(=O)C(NCCc3ccc(C#N)cc3)c3ccc(Cl)cc3)nc2)cn1 (single isomer, unassigned) [67 Isomer 2]
6.71 | Cc1ncn(-c2ccc(NC(=O)C(NCCc3ccc(C#N)cc3)c3ccccc3)nc2)n1 (single isomer, unassigned) [73 Isomer 2]
6.73 | Cn1cc(-c2cnc(NC(=O)C(NCCc3ccc(C#N)cc3)c3ccccc3)c(Cl)c2)cn1 (single isomer, unassigned) [43 Isomer 1]
6.84 | COC1CCN(c2ccc(NC(=O)C(NCCc3ccc(C#N)cc3)c3ccccc3)nc2)CC1 (single isomer, unassigned) [66 Isomer 1]
7.06 | CCN1CCN(c2ccc(NC(=O)C(NCCc3ccc(C#N)cc3)c3ccccc3)nc2)C1=O (single isomer, unassigned) [76 Isomer 1]
7.06 | CN1CCN(c2ccc(NC(=O)C(NCCc3ccc(C#N)cc3)c3ccccc3)nc2)CCC1=O (single isomer, unassigned) [71 Isomer 1]
7.07 | COc1ccc(C(NCCc2ccc(C#N)cc2)C(=O)Nc2ccc(-c3cnn(C)c3)cn2)cc1 (single isomer, unassigned) [63 Isomer 1]
7.40 | N#Cc1ccc(CCNC(C(=O)Nc2ccc(N3CCC(F)(F)C3)cn2)c2ccccc2)cc1 (single isomer, unassigned) [77 Isomer 1]
7.41 | CC(CNC(C(=O)Nc1ccc(-n2cnc(C(C)(C)C)c2)cn1)c1ccccc1)c1ccc(C#N)cc1 (single isomer, unassigned) [59 Isomer 4]
7.45 | CN1CCN(c2ccc(NC(=O)C(NCCc3ccc(Cl)cc3)c3ccccc3)nc2)CC1 (single isomer, unassigned) [69 Isomer 1]
7.49 | Cc1nnc2n1CCN(c1ccc(NC(=O)C(NCCc3ccc(C#N)cc3)c3ccccc3)nc1)C2 (single isomer, unassigned) [60 Isomer 1]
7.51 | CC(CNC(C(=O)Nc1ccc(-c2cnn(C3CCC3)c2)cn1)c1ccccc1)c1ccc(C#N)cc1 (single isomer, unassigned) [52 Isomer 3]
7.62 | CC(CNC(C(=O)Nc1ccc(-c2cnn(C(C)(C)C#N)c2)cn1)c1ccccc1)c1ccc(C#N)cc1 (single isomer, unassigned) [47 Isomer 2]
7.62 | CC(CNC(C(=O)Nc1ccc(-c2cnn(C(C)(C)C)c2)cn1)c1ccccc1)c1ccc(C#N)cc1 (single isomer, unassigned) [54 Isomer 2]
7.99 | Cc1cc(C#N)ccc1CCNC(C(=O)Nc1ccc(-c2cnn(C)c2)cn1)c1ccccc1 (single isomer, unassigned) [41 Isomer 1]
